The conditions of this data set: rat; liver microsomes; pH 7.4; 15.0 min; 1.0 µM. For orientation: Liver microsomes are vesicles of endoplasmic reticulum, rich in cytochrome P450 enzymes.
With `COc1ccc(NC2=C(c3ccc(C(F)(F)F)cc3)C(=O)c3ccccc32)cc1`, the half-life (in general, how long it takes for the measured level to halve) was 7.57 min.
With `O=C(Nc1nc(-c2ccc(Cl)s2)cs1)c1cccs1`, the half-life was found to be 19.5 min.
Turning to `CCN(C(=O)C(NS(=O)(=O)c1ccc(Br)s1)c1ccccc1)c1ccc(C)c(C)c1` (centres undefined), the half-life stood at 0.99 min.
As for `CCN(CC)S(=O)(=O)c1cccc(C(=O)Nc2ccc(C#N)cc2)c1`, the figure is 3.8 min.
As for `COc1ccc(-c2csc(C3=C(O)CN(Cc4ccc(Cl)cc4)C3=N)n2)cc1OC`, the figure is 12 min; as for `C=CCc1cccc(CNc2ccc(S(=O)(=O)Nc3nccs3)cc2)c1O`, 19 min.
Molecule `CC(C)c1cc(C(=O)N2CC[C@@H](NC(=O)C3CC3)C2)n[nH]1` gave a half-life of more than 30 min.
Take `CCOC(=O)C1(Cc2ccccc2C(F)(F)F)CCN(C2CCN(C(C)C)CC2)CC1`: the half-life was more than 30 min.
`Fc1ccc(Nc2nc(-c3ccnc4ccccc34)nc3ccccc23)cc1F` showed a half-life of 27 min.
Under `CC(C)c1ccc(OCc2nc3c(n2Cc2ccccc2)C(=O)N(CC2CCOCC2)CCN3)cc1` stands 1.68 min; under `Cn1cncc1[C@@](N)(c1ccc(Cl)cc1)c1ccc2c(c1)c(-c1cccc(Cl)c1)cc(=O)n2C`, 9.54 min.
As for `Cc1cccc(-c2noc([C@@H]3Cc4nc[nH]c4CN3)n2)c1`, the figure is more than 30 min; as for `O=C(Nc1cncc(Cc2ccccc2)c1)c1ccc(-c2cccc([N+](=O)[O-])c2)o1`, 2.4 min.
As for `O=C(Nc1ncc(Cc2ccccc2)s1)c1ccc(-c2cccc([N+](=O)[O-])c2)o1`, the figure is more than 30 min; as for `O=C(c1cccc(F)c1)N1CCC2(CCN(Cc3cc(C(F)(F)F)cc(C(F)(F)F)c3)CC2)CC1`, more than 30 min.
The molecule `O=C(Nc1ccc2oc(-c3ccncc3)nc2c1)c1ccccc1Cl` returned a half-life of more than 30 min.
Under `COc1cccc(CNCCSc2nnnn2C)c1OCc1ccc(Cl)cc1Cl` stands 1.35 min.
Under `Cc1ccc(S(=O)(=O)Nc2cnccc2C(=O)Nc2ccc(C#N)cc2)cc1` stands 7.5 min; under `COc1cccc(CNc2ccc(S(=O)(=O)Nc3nc4ccccc4o3)cc2)c1O`, more than 30 min.
Regarding `CCc1cccc(NC(=O)C(Cc2ccccc2)NS(=O)(=O)c2cccs2)c1` (centres undefined), the half-life worked out at 1.44 min.
Turning to `c1ccc2c(Nc3ccn[nH]3)nc(-c3ccncc3)nc2c1`, the half-life was 13 min.
As for `Cc1ccc(S(=O)(=O)Nc2ccccc2C(=O)Nc2nc(-c3ccccc3)co2)cc1`, the figure is 3.9 min; as for `Cc1cccc(C)c1C(=O)Nc1cccc([S+](=O)([O-])N2CCCCCC2)c1`, 1.6 min; as for `COc1ccccc1C(=O)Nc1ccccc1C(=O)Nc1cccc(S(=O)(=O)C(F)(F)F)c1`, more than 30 min.
Under `Cc1cc(NC(=O)c2ccc(NC(=O)Cc3ccc(Cl)c(Cl)c3)cc2)no1` stands 22 min; under `COc1cccc(CNC(=O)c2c(OC)cc(=O)n3c2CCN(C(=O)c2ccc(C)cc2C)CC3)c1`, 5.9 min; under `CSc1ccc(/C=C/c2nc3ccccc3n2S(=O)(=O)c2ccc(Br)cc2)cc1`, 6.3 min.
Under `CCOC(=O)N1CCN(Cc2nc3cc(NC(=O)c4ccc(OC)cc4)ccc3n2C(C)C)CC1` stands 26 min; under `O=C(c1nc(-c2ccc(Cl)nc2)c2ccccn12)N1CCCC1`, 8.91 min.
Molecule `Cc1ccc(S(=O)(=O)Nc2cnccc2C(=O)Nc2ccc(-c3nc4ccccc4[nH]3)cc2)cc1` registered a half-life of 14 min.
As for `NC(=O)N1CCN(c2nc(-c3ccc(Br)cc3)cs2)CC1`, the half-life was more than 30 min.
As to `COC(=O)c1cccc(NC(=O)c2cnc(-c3ccc(F)cc3)nc2-c2ccncc2)c1`, the half-life is 9.09 min.
Under `Fc1cc(Nc2nc(-c3ccncc3)nc3ccccc23)ccc1-c1cccc(OC(F)F)c1` stands more than 30 min.
Under `O=C(NCCN1CCOCC1)C1CC(=O)N(c2n[nH]c3cc(Br)ccc23)C1` (centres undefined) stands more than 30 min; under `Clc1cccc(-c2ccc(-c3nnc(CCCc4ccc5cccnc5n4)o3)cc2)c1`, 2.3 min.
Under `Cc1noc(C)c1-c1csc(N2CCC(C(N)=O)CC2)n1` stands more than 30 min.
In turn, `CCOc1ccc(-c2nc(SCC(=O)Nc3ccc(C)c(C)c3)n3[nH]c(=O)cc3n2)cc1` showed a half-life of 19.9 min.
Consider `CC(C)c1ccc(-n2ncc3c(=O)n(CC(=O)Nc4cc(F)ccc4Cl)cnc32)cc1`, for which the half-life came out at 20 min.
As for `CCN(c1ccccc1)S(=O)(=O)c1cc(C(=O)Nc2ccc(Br)cc2)ccc1F`, the figure is 1.5 min.
For the molecule `COc1cc(C(=S)N2CCN(CCO)CC2)ccc1OCc1ccc(C)cc1`, the half-life turned out to be 3.2 min.
As for `CC(C)NC(=O)c1nc(-c2ccc(Cl)nc2)c2ccccn12`, the figure is 19.6 min.
With `CC1CCc2ccc(F)cc2N1S(=O)(=O)c1cccs1` (centres undefined), the half-life worked out at 2.7 min.
Take `CCc1cccc(NC(=O)CSc2nc3ccccc3nc2N2CCCCC2)c1`: the half-life amounted to 1.97 min.
Under `Nc1cc(CN2C(=O)c3ccccc3C2=O)cc(Cl)c1O` stands 11.7 min.
Under `O=C(O)CCC(=O)Nc1nc(-c2ccccc2)cs1` stands more than 30 min.
`CN1C(=O)CN=C(c2ccccc2Cl)c2cc(Cl)ccc21` had a half-life of 3.04 min.
Under `O=C(Nc1ncc(Cc2ccc(C(F)(F)F)cc2)s1)c1ncc(-c2ccccc2)[nH]1` stands more than 30 min; under `[2H]C([2H])(Nc1nc(-c2ccccc2C([2H])(C([2H])([2H])[2H])C([2H])([2H])[2H])ncc1C)c1ccc(-n2ccnn2)cc1`, 13 min; under `Fc1ccc(Nc2nc(-c3ccncc3Cl)nc3ccccc23)cc1F`, 19 min.
Under `O=C(Nc1ccc([S+](=O)([O-])Nc2nccs2)cc1)c1ccn[nH]1` stands more than 30 min.
As for `COc1ccc(CN2CCc3nc(N4CCN(c5ccc(F)cc5)CC4)ncc3C2)c(OC)c1OC`, the figure is 1.65 min; as for `CCOc1ccc(CCNC(=O)c2ccc3ccccc3n2)cc1OCC`, 1.7 min.
Molecule `CC#CC(=O)N1CCC[C@H]1c1nc(-c2ccc(C(=O)Nc3ccccn3)cc2)c2c(N)nccn12` returned a half-life of 19.4 min. Against the preceding molecule, the half-life is about 11-fold higher.
`COc1ccc(-c2ccc(Nc3nc(-c4ccncc4)nc4ccccc34)cc2F)cc1F` gave a half-life of 11 min.
As to `O=C(NCCO)c1cccc(-c2cc(Nc3ccc(OC(F)(F)F)cc3)ncn2)c1`, the half-life is more than 30 min.
As for `COC[C@@H]1CN(C(=O)c2n[nH]c3ccccc23)C[C@H]1c1nc(C)no1`, the figure is more than 30 min; as for `O=C1CCCC2=C1C1(CCSC1)N=C(Nc1nc3ccccc3o1)N2` (centres undefined), 2.5 min; as for `O=C(O)c1ccnc2cc(-c3nc4ccccc4n3CCN3CCCCC3)sc12`, more than 30 min.
Under `O=S(=O)(c1ccccc1)c1nc(-c2ccc(F)cc2)oc1N1CCCCCC1` stands 1.95 min; under `N#Cc1ccc(Nc2ncc(-c3cccc4ccccc34)o2)cc1`, more than 30 min; under `Cc1ccc(NS(=O)(=O)c2ccccc2C(=O)Nc2nc(-c3ccccc3)cs2)cc1`, 15 min.
Consider `C=Cc1ccc(Cn2c(C(=O)O)c(CNC3CCCCC3)c3ccc(OC)cc32)cc1`, for which the half-life was found to be 7.15 min.
Under `C[C@@H]1Cc2c([nH]c3cc(Cl)c(F)cc23)[C@]2(N1)C(=O)Nc1ccc(Cl)cc12` stands more than 30 min.
`O=C(Cc1cccc(OC(F)(F)F)c1)Nc1ccc(CCCCc2nnc(NC(=O)Cc3ccccn3)s2)nn1` returned a half-life of 20.9 min.
Under `N#Cc1ccc(-c2csc(N3CCC(C(N)=O)CC3)n2)cc1` stands 16.2 min; under `Cc1cc(NS(=O)(=O)c2ccc(N(C)C(=O)Cc3ccc(Cl)c(Cl)c3)cc2)no1`, more than 30 min; under `O=C(Nc1ccc([S+](=O)([O-])Nc2nccs2)cc1)c1ncn[nH]1`, more than 30 min.
Under `COc1c(NS(=O)(=O)c2ccc(C)cc2)cccc1C(=O)Nc1nc(-c2ccccc2)cs1` stands 9.7 min.
`COc1cc2c(cc1OC)C(C[C@H]1CN(S(=O)(=O)c3cccc(C#N)c3)CC[C@H]1CC(=O)O)=NCC2` had a half-life of more than 30 min.
As for `CC1(C)CNc2cc(NC(=O)c3cccnc3NCc3ccncc3)ccc21`, the figure is 15.2 min.
Under `Nc1nc(Nc2ccc(S(N)(=O)=O)cc2)n(C(=S)Nc2c(F)cccc2F)n1` stands more than 30 min.
As for `CCS(=O)(=O)c1nc(-c2ccc(Cl)cc2)cc(C(F)(F)F)n1`, the figure is 5.7 min; as for `O=S(=O)(Nc1nccs1)c1ccc(NCc2ccc(Cl)cc2O)cc1`, 7.5 min; as for `Cc1cccc(C)c1Nc1c(-c2ccccn2)nc2ccc(Cl)cn12`, 1.86 min.
`Fc1cc(Nc2nc(-c3ccncc3)nc3ccccc23)ccc1-c1cn[nH]c1` yielded a half-life of 19 min. This half-life is about 10-fold higher than that of the molecule before.
For `O=S(=O)(Nc1ccc(-c2cccnc2)c2cccnc12)c1cccc(C(F)(F)F)c1`, the half-life was found to be 1.25 min.
On to `COc1cccc(CNc2ccc(S(=O)(=O)Nc3cc(C)on3)cc2)c1O`, for which the half-life was more than 30 min.
As for `N#Cc1ccccc1-c1csc(N2CCC(C(N)=O)CC2)n1`, the figure is 3.76 min.
`CC1(C)C[C@@H]2C[C@@](C)(CN2S(=O)(=O)c2ccc(C(=O)Nc3ccc(Cl)c(S(=O)(=O)N4CCOCC4)c3)cc2)C1` came in with a half-life of 3.95 min. This half-life and that of the molecule before are within 1.5-fold of each other.
Under `CCOc1ccc(CCNC(=O)c2cc3c(s2)CCC3)cc1OCC` stands 1.6 min.
`Cc1ccc(NC(=O)N2CCN(c3nc(N)nc4sc(-c5cccnc5)nc34)CC2)cc1`: the half-life is 17.1 min. This half-life lies about 11-fold higher than the previous one.
Under `C=C1c2cccc(O)c2C(O)=C2C(=O)[C@]3(O)C(O)=C(C(N)=O)C(=O)[C@@H](N(C)C)[C@@H]3[C@@H](O)[C@H]12` stands more than 30 min; under `c1c[nH]c(C2CCN(c3ncc(-c4ccc5c(c4)OCCCO5)s3)CC2)n1`, 4.29 min; under `O=C(NCC1CCOCC1)C1CC(=O)N(c2n[nH]c3cc(Br)ccc23)C1` (centres undefined), more than 30 min.
With `O=C1c2ccccc2-n2c1nc1ccccc1c2=O`, the half-life amounted to 21.3 min.
As for `NC(=O)C1CCN(c2nc(-c3ccc4occc(=O)c4c3)cs2)CC1`, the figure is 6.19 min.
Under `COc1ccc(C2c3[nH]c4ccc(OC)cc4c3CCN2C(=O)Nc2ccccc2)cc1` (centres undefined) stands 25.7 min; under `CN1CCCN(C(c2ccccc2)c2ccc(Cl)cc2)CC1` (centres undefined), 2.89 min; under `C[C@H]1CN(C(=O)Nc2ccc(F)cc2F)C[C@@H]1c1nc(-c2ccccc2)no1`, more than 30 min.

These data come from PubChem BioAssay AID1508591.
